Results taken from patent publication US20040147531A1, “Amidine derivatives for treating amyloidosis” (priority 2001, published 2004).

How the values were obtained:
Set-up in all cases: key: “+” = active; “−” = inactive; “pr” = promoting
Aβ (1-40) = target: T1, Aβ (1-40) (Homo sapiens, UniProt P05067); assay: thioflavin T fluorescent assay (ThT assay) for fibrillogenesis; assay type: biochemical; conditions: Aβ (1-40) 20 μM, 5 μM Thioflavin T, pH 7.40, 37° C.; inhibition of fibrillogenesis
T1 construct: Aβ peptide: Aβ (1-40) 95% purity (American Peptide Company, Inc, Sunnyvale, Calif. USA); purchased American Peptide Company, Inc, Sunnyvale, Calif; USA
T1 sequence (P05067 672-711 limits assumed): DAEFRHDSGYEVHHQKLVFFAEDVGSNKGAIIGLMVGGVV
Text: Test compounds were purchased from commercial sources or synthesized and screened by thioflavin T fluorescent assay (“ThT assay”). Alternatively, one could screen test compounds by circular dichroism (“CD”), electron microscopy (“EM”), or mass spectroscopy (“MS”) assays. The MS assay gives data on the ability of compounds to bind to an amyloid protein, whereas the ThT, EM, and CD assays give data on inhibition of fibrillogenesis. The thioflavin T fluorescent assay for fibrillogenesis is based on the principle that the fluorescent dye, thioflavin T, binds specifically to fibrillar, but not to unaggregate Aβ peptide (LeVine III, H., 1993, Protein Science 2:404-410). Upon binding, thioflavin T develops a characteristic fluorescence (Naiki, H., et al., 1996, Lab. Invest. 74: 374-383) which can be easily detected. The dye is believed to interact with the stacked cross-β pleated sheets, the common structural motif of all amyloid (LeVine III, H., 1995, Amyloid: Int. J. Exp. Clin Invest. 2:1.6). Thioflavin T is widely used to assay the effect of compounds on fibrillogenesis of Aβ peptide and other amyloid proteins (Bronfman, P. C., et al., 1995, Neuroscience Lett. 218:201-203). In this assay, test compounds are incubated with a solution of Aβ (1-40) (20 μM) or IAPP (10 μM) containing 5 μM Thioflavin T, in 0.02M Tris/0.02M acetate/0.15M NaCl/0.005% azide/pH 7.40 at 37° C. in sealed 384 well microplates. Readings (ex 430 nm/em 485 nm) are taken at various time intervals with a microplate fluorescence reader. An increase in fluorescence signifies the appearance of amyloid or intermediates in the production of amyloid, as illustrated in the Figures (in general, a compound which inhibits fibrillogenesis produces lower fluorescence in the assay because the fluorescence of ThT is greater when bound to fibrils). Protocol: Aβ peptide: Aβ (1-40) 95% purity (American Peptide Company, Inc, Sunnyvale, Calif. USA) is disaggregated in trifluoroacetic acid and filtered through a […] filter, (Whatman Anotop 25 plus, 0.02 μm, Catalogue no. 6809 4102) in hexafluoroisopropanol (HFIP). Solutions of Aβ (1-40) or IAPP at 600 μm in HFIP are stored at −80° C. Assay mixture: The mixture is prepared as two solutions which are combined upon addition to the 384 well microplate (Corning Costar cat. 3705). i) Solution A consists of test compounds in 0.02M Tris/0.02M acetate/0.15M NaCl/0.01% azide at pH 7.40 or buffer alone (control), ii) Solution B consists of Aβ (1-40) 40 μM or IAPP 20 μM, Thioflavin T […] in 0.02M Tris/0.02M acetate/0.15M NaCl at pH 7.40. This solution is prepared by drying the Aβ peptide under nitrogen and then resuspending this in 0.04M Tris base with 15 minutes sonication. An equal volume of 0.04M acetic acid containing 0.3 M NaCl is added and the solution is adjusted to 7.40±0.02. A small volume of 20 mM Thioflavin T is added to the solution to give a final 5 μM concentration of Thioflavin T. iii) The microplate is loaded with 40 μL of solution A followed by 40 μL of solution B which gives a final 20 μM Aβ (1-40) or 10 μM IAPP, 5 μM Thioflavin T, and a given concentration of test compound in 0.02M Tris/0.02M acetate/0.15M NaCl/0.005% azide, pH 7.40. The plate is sealed and loaded into the microplate fluorescence reader. Fluorescence measurement data analysis: The HTS-7000 Bio Assay Reader, Perkin Elmer, is used to perform kinetic runs of about 1 day. Readings were taken at 15 minute intervals, with one minute shaking before each read. Bandpass filters used were: excitation 430 nm, emission […].

Aβ40 = target: T2, Aβ40 (Homo sapiens, UniProt P05067); assay: mass spectroscopy (MS) assay, binding to Aβ; conditions: 200 μM test compound, 20 μM solubilized Aβ40, pH 7.4; ability to bind to Aβ
T2 construct: 200 μM of a test compound and 20 μM of solubilized Aβ40
T2 sequence (P05067 672-711 limits assumed): as above
Description: Test compounds were purchased from commercial sources or synthesized and screened by thioflavin T fluorescent assay (“ThT assay”). Alternatively, one could screen test compounds by circular dichroism (“CD”), electron microscopy (“EM”), or mass spectroscopy (“MS”) assays.
And in the mass spectroscopy (“MS”) assay, samples were prepared as aqueous solutions containing 20% ethanol, 200 μM of a test compound and 20 μM of solubilized Aβ40. The pH value of each sample was adjusted to 7.4 (±0.2) by addition of 0.1% aqueous sodium hydroxide. The solutions were then analyzed by electrospray ionization mass spectroscopy using a Waters ZQ 4000 mass spectrometer. Samples were introduced by direct infusion at a flow-rate of 25 μL/min within 2 hr. after sample preparation. The source temperature was kept at 70° C. and the cone voltage was 20 V for all the analysis. Data were processed using Masslynx 3.5 software.

Aβ [1] = target: T3, Aβ (Homo sapiens, UniProt P05067); assay: electron microscopy (EM) assay, inhibition of fibrillogenesis; assay type: biochemical; conditions: soluble Aβ
T3 construct: Aβ peptide: Aβ (1-40) 95% purity (American Peptide Company, Inc, Sunnyvale, Calif. USA)
T3 sequence (P05067 672-711 limits assumed): as above
Text: (§1) Test compounds were purchased from commercial sources or synthesized and screened by thioflavin T fluorescent assay (“ThT assay”). Alternatively, one could screen test compounds by circular dichroism (“CD”), electron microscopy (“EM”), or mass spectroscopy (“MS”) assays. The MS assay gives data on the ability of compounds to bind to an amyloid protein, whereas the ThT, EM, and CD assays give data on inhibition of fibrillogenesis.
Similarly, in the electron microscopy (“EM”) assay, each sample was sonicated for 1 min to disrupt large clumps before testing. The sample (5-μL aliquot) was placed on freshly cleaved mica and allowed to air dry. The mica was placed in a Balzers High-vacuum, Freeze-Etch Unit (model 301), shadowed with platinum (30° angle), and coated with a carbon film. The replica was removed from the mica by flotation and transferred onto a 300-mesh copper grid. Samples were examined using a Joel 2000 FX transmission electron microscope. […]

Aβ [2] = target: T3, Aβ; assay: circular dichroism (CD) assay, inhibition of fibrillogenesis; assay type: biochemical; conditions: soluble Aβ, 37° C., 190-240 nm
Text: as §1
In the circular dichroism (“CD”) assay, samples were transferred to 0.1-cm path-length quartz cuvettes and CD scans were taken using a Jasco J-715 spectropolarimeter. Readings were taken at 37° C., between 190 and 240 nm, with a resolution of 0.1 nm and a bandwidth of 1 nm. […]

Structure (SMILES)	ThT Assay (Aβ (1-40))	MS Assay (Aβ40)	EM (Aβ [1])	CD (Aβ [2])
N=C(N)CCCOc1ccc(C(=N)N)cc1 [Compound 41]	+	+		
c1cc(C2=NCCN2)ccc1OCCOCCOc1ccc(C2=NCCN2)cc1 [Compound 35]	+	+	−	
N=C(N)c1ccc(-c2cc3ccc(C(=N)N)cc3[nH]2)cc1 [Compound 28]	+		+	+
Cl.N=C(N)c1ccccc1 [Compound 46]	−		−	−
N=C(N)c1ccc(OCCCCOc2ccc(C(=N)N)cc2)cc1 [Compound 5]	+	+		
N=C(N)c1ccc(OCc2cccc(COc3ccc(C(=N)N)cc3)c2)cc1 [Compound 24]	+	+	+	
N=C(N)c1ccc(OCOc2ccc(C(=N)N)cc2)cc1 [Compound 9]	+	+	−	+
c1cc(COc2ccc(C3=NCCN3)cc2)ccc1COc1ccc(C2=NCCN2)cc1 [Compound 27]	pr			
N=C(N)c1ccc(OCc2ccc(COc3ccc(C(=N)N)cc3)cc2)cc1 [Compound 26]	+		−	
c1cc(COc2ccc(C3=NCCN3)cc2)cc(COc2ccc(C3=NCCN3)cc2)c1 [Compound 25]	+		+	
CC(C)NC(=N)c1cccc(COc2cccc3c(OCc4cccc(C(=N)NC(C)C)c4)cccc23)c1 [Compound 60]		+	−	+
N=C(N)c1ccc(OCCC(O)COc2ccc(C(=N)N)cc2)cc1 (stereo not shown) [Compound 31]	+	+	−	
